Consider 19 compounds from patent US7169803B2, “N-substituted prodrugs of fluorooxindoles” (Bristol-Myers Squibb Company, priority 2004, dated 2007).

Counter-ions that a name gives are not always drawn.

In the first data set the test system is cloned mammalian (mSlo or hSlo) BK channels heterologously expressed in Xenopus oocytes. Put plainly: BK-mediated outward current in Xenopus oocytes, two-electrode voltage clamp. The format is cell-based. The conditions noted are these: 10 μM, at least 5 oocytes, steps from -60 mV to +140 mV. Here is the method:
(§1) The ability of the compound of Formula IV to open BK channels and increase whole-cell outward (K^+) BK-mediated currents was assessed under voltage-clamp conditions by determining their ability to increase cloned mammalian (mSlo or hSlo) BK-mediated outward current heterologously expressed in Xenopus oocytes [Butler, A., et al., Science, 261, pp. 221–224 (1993); and Dworetzky, S. I., et al., Mol. Brain Res., 27, pp. 189–193 (1994)]. The two BK constructs employed represent nearly structurally identical homologous proteins, and have proven to be pharmacologically identical in our tests. To isolate BK current from native (background, non-BK) current, the specific and potent BK channel-blocking toxin iberiotoxin (IBTX) [Galvez, A., et al., J. Biol. Chem, 265, pp. 11083–11090 (1990)] was employed at a supramaximal concentration (50 nM). The relative contribution of BK channels current to total outward current was determined by subtraction of the current remaining in the presence of IBTX (non-BK current) from the current profiles obtained in all other experimental conditions (control, drug, and wash). […] The compound of Formula IV was shown in at least 5 oocytes at a concentration of 10 μM to increase BK current to 170% of control of IBTX-sensitive current. […]
Consider `COc1ccc(Cl)cc1C1(F)C(=O)Nc2cc(C(F)(F)F)ccc21` (stereo not shown) [compound of Formula IV, 3-(5-chloro-2-methoxyphenyl)-3-fluoro-6-(trifluoromethyl)indolin-2-one], for which the “increase BK current to % of control of IBTX-sensitive current” value is given as 170 % of control.

A further data set deals with non-BK native currents in the oocytes. Nature of the data set: Effect on non-BK native currents in oocytes (current remaining in presence of IBTX). The following applies: at the tested concentration. The format is cell-based, Xenopus. Here is the method: as §1
On to `COc1ccc(Cl)cc1C1(F)C(=O)Nc2cc(C(F)(F)F)ccc21` (stereo not shown) [compound of Formula IV, 3-(5-chloro-2-methoxyphenyl)-3-fluoro-6-(trifluoromethyl)indolin-2-one], for which the “effect on non-BK native currents in the oocytes” value was “did not effect non-BK native currents”.

For another data set, the system named is focal cerebral ischemia (MCAO). Nature of the data set: Focal stroke model: permanent MCA/CCA occlusion, cortical infarct volume. In kind it is in vivo, Wistar rat. The conditions noted are these: intravenously (0.3 mg//kg) single bolus two hours after MCA occlusion; vs vehicle-treated control; measured 24 hours after MCAO. The method, then: To determine the ability of the compounds of the present invention to reduce cell loss resulting from neuronal ischemia, a standard focal cerebral ischemia is induced by permanent occlusion of the left middle cerebral artery (MCA) and common carotid artery (CCA) with one hour occlusion of the right CCA in the Wistar rat. The surgeries are performed using the sub-temporal approach of A. Tamura, et al., J. Cereb. Blood Flow Metab., 1, pp. 53–60, (1981) and its modifications [K. Osborne, et al., J. Neurol Neurosurg. Psychiatry, 50, pp. 402–410 (1987) and S. Menzies, et al., Neurosurgery, 31, pp. 100–107, (1992).]
The compound of Formula IV was evaluated in the focal stroke model involving permanent occlusion of the left MCA (MCAO) and CCA (CCAO) and temporary occlusion of the right CCA in the Wistar rat [Gribkoff, et al. Nature Med. 7, pp. 471–477 (2001)]. This procedure results in a reliably large neocortical infarct volume that is measured by means of vital dye exclusion in serial slices through the brain 24 hours after MCAO. In the present test, compounds were administered using an i.v. or i.p. route of administration two hours after occlusion.
`COc1ccc(Cl)cc1C1(F)C(=O)Nc2cc(C(F)(F)F)ccc21` (stereo not shown) [compound of Formula IV, 3-(5-chloro-2-methoxyphenyl)-3-fluoro-6-(trifluoromethyl)indolin-2-one]: the “reduction of cortical infarct volume” value is “about 28%”.

System in the next data set: not given
Assay: not given
Conditions: not given
Regarding `COc1ccc(Cl)cc1[C@]1(F)C(=O)N(C(=O)NC(C)(C)C(=O)O)c2cc(C(F)(F)F)ccc21` [Example 38, (S)-2-(3-(5-chloro-2-methoxyphenyl)-3-fluoro-2-oxo-6-(trifluoromethyl)-indoline-1-carboxamido)-2-methylpropanoic acid], the melting point was 107 to 110 °C. The same measure, in the same setting: the same measure for `CC[C@H](C)[C@H](NC(=O)N1C(=O)[C@@](F)(c2cc(Cl)ccc2OC)c2ccc(C(F)(F)F)cc21)C(=O)O` [Example 40, (2S,3S)-2-((S)-3-(5-chloro-2-methoxyphenyl)-3-fluoro-2-oxo-6-(trifluoromethyl)indoline-1-carboxamido)-3-methylpentanoic acid]: 88 to 92 °C. As for `COc1ccc(Cl)cc1[C@]1(F)C(=O)N(COC(=O)c2ccc(CN3CCCCC3)cc2)c2cc(C(F)(F)F)ccc21` (as salt: trifluoroacetate) [Example 31, (S)-4-Piperidin-1-ylmethyl-benzoic acid 3-(5-chloro-2-methoxy-phenyl)-3-fluoro-2-oxo-6-trifluoromethyl-2,3-dihydro-indol-1-ylmethyl ester, trifluoroacetate], the melting point lay in the range of 85 to 89 °C. On to `CCN(CC)Cc1ccc(C(=O)OCN2C(=O)[C@@](F)(c3cc(Cl)ccc3OC)c3ccc(C(F)(F)F)cc32)cc1` (as salt: trifluoroacetate) [Example 27, (S)-(3-(5-chloro-2-methoxyphenyl)-3-fluoro-2-oxo-6-(trifluoromethyl)indolin-1-yl)methyl 4-((diethylamino)methyl)benzoate, trifluoroacetate], for which the melting point lay within 75 to 80 °C.

In the case of `COc1ccc(Cl)cc1[C@]1(F)C(=O)N(C(=O)OCOC(=O)CCC(=O)O)c2cc(C(F)(F)F)ccc21` [Example 16, (S)-4-((3-(5-chloro-2-methoxyphenyl)-3-fluoro-2-oxo-6-(trifluoromethyl)indoline-1-carbonyloxy)methoxy)-4-oxobutanoic acid], the melting point was 68 to 71 °C (dec.). The same measure, in the same setting: the same measure for `COc1ccc(Cl)cc1[C@]1(F)C(=O)N(COC(=O)c2ccc(CN3CCN(C)CC3)cc2)c2cc(C(F)(F)F)ccc21` (as salt: hydrochloride) [Example 25]: 265 to 269 °C (dec.); for `CCN(CC)CCN(CC)Cc1cccc(C(=O)OCN2C(=O)[C@@](F)(c3cc(Cl)ccc3OC)c3ccc(C(F)(F)F)cc32)c1` (as salt: hydrochloride) [Example 30, (S)-(3-(5-chloro-2-methoxyphenyl)-3-fluoro-2-oxo-6-(trifluoromethyl)indolin-1-yl)methyl 3-(((2-(diethylamino)ethyl)(ethyl)amino)methyl)benzoate, hydrochloride]: 120 to 125 °C; for `COc1ccc(Cl)cc1[C@]1(F)C(=O)N(C(=O)N[C@@H](C)C(=O)O)c2cc(C(F)(F)F)ccc21` [Example 35, (S)-2-((S)-3-(5-chloro-2-methoxyphenyl)-3-fluoro-2-oxo-6-(trifluoromethyl)-indoline-1-carboxamido)propanoic acid]: 103 to 107 °C. The same measure, in the same setting: the same measure for `CCN(CC)CCN(CC)Cc1ccc(C(=O)OCN2C(=O)[C@@](F)(c3cc(Cl)ccc3OC)c3ccc(C(F)(F)F)cc32)cc1` (as salt: hydrochloride) [Example 29, (S)-(3-(5-chloro-2-methoxyphenyl)-3-fluoro-2-oxo-6-(trifluoromethyl)indolin-1-yl)methyl 4-(((2-(diethylamino)ethyl)(ethyl)amino)methyl)benzoate, hydrochloride]: 155 to 160 °C. The same measure, in the same setting: the value for `COc1ccc(Cl)cc1[C@]1(F)C(=O)N(COC(=O)c2ccc(CN3CCOCC3)cc2)c2cc(C(F)(F)F)ccc21` (as salt: hydrochloride) [Example 23, (S)-(3-(5-chloro-2-methoxyphenyl)-3-fluoro-2-oxo-6-(trifluoromethyl)indolin-1-yl)methyl 4-(morpholinomethyl)benzoate, hydrochloride] was 174 to 178 °C; that for `COc1ccc(Cl)cc1[C@]1(F)C(=O)N(COC(=O)c2cccc(CN3CCN(C)CC3)c2)c2cc(C(F)(F)F)ccc21` (as salt: hydrochloride) [Example 26] was 190 to 193 °C (dec.); that for `COc1ccc(Cl)cc1[C@]1(F)C(=O)N(C(=O)NCCC(=O)O)c2cc(C(F)(F)F)ccc21` [Example 42, (S)-3-(3-(5-chloro-2-methoxyphenyl)-3-fluoro-2-oxo-6-(trifluoromethyl)-indoline-1-carboxamido)propanoic acid] was 72 to 76 °C. In turn, `COc1ccc(Cl)cc1[C@]1(F)C(=O)N(COC(=O)CN(C)C)c2cc(C(F)(F)F)ccc21` (as salt: hydrochloride) [Example 14, (S)-(3-(5-chloro-2-methoxyphenyl)-3-fluoro-2-oxo-6-(trifluoromethyl)indolin-1-yl)methyl 2-(dimethylamino)acetate, hydrochloride)] displayed a melting point of 157 to 160 °C.

Take `COc1ccc(Cl)cc1[C@]1(F)C(=O)N(C(=O)N[C@H](C(=O)O)C(C)C)c2cc(C(F)(F)F)ccc21` [Example 39, (S)-2-((S)-3-(5-chloro-2-methoxyphenyl)-3-fluoro-2-oxo-6-(trifluoromethyl)-indoline-1-carboxamido)-3-methylbutanoic acid]: the melting point is 100 to 104 °C. On the same count and under the same terms, the value for `COc1ccc(Cl)cc1[C@]1(F)C(=O)N(C(=O)N[C@@H](CCC(=O)O)C(=O)O)c2cc(C(F)(F)F)ccc21` [Example 37, (S)-2-((S)-3-(5-chloro-2-methoxyphenyl)-3-fluoro-2-oxo-6-(trifluoromethyl)-indoline-1-carboxamido)pentanedioic acid] was 90 to 94 °C; that for `CCN(CC)Cc1cccc(C(=O)OCN2C(=O)[C@@](F)(c3cc(Cl)ccc3OC)c3ccc(C(F)(F)F)cc32)c1` (as salt: hydrochloride) [Example 28, (S)-(3-(5-chloro-2-methoxyphenyl)-3-fluoro-2-oxo-6-(trifluoromethyl)indolin-1-yl)methyl 3-((diethylamino)methyl)benzoate, hydrochloride] was 195 to 198 °C (dec.). Still for that read-out and setting: the same measure for `COc1ccc(Cl)cc1[C@]1(F)C(=O)N(C(=O)N[C@@H](Cc2ccccc2)C(=O)O)c2cc(C(F)(F)F)ccc21` [Example 41, (S)-2-((S)-3-(5-chloro-2-methoxyphenyl)-3-fluoro-2-oxo-6-(trifluoromethyl)-indoline-1-carboxamido)-3-phenylpropanoic acid]: 98 to 102 °C.

The next data set deals with traumatic brain injury (TBI).
Assay: not given
The conditions noted are these: rat TBI model; Cheney, et al. 2001; cited from earlier work.
On to `COc1ccc(Cl)cc1[C@]1(F)C(=O)Nc2cc(C(F)(F)F)ccc21` [Compound of Formula (S)-IV, (S)-3-(5-chloro-2-methoxyphenyl)-3-fluoro-6-(trifluoromethyl)-indolin-2-one], for which the “reductions in edema in regions adjacent to the impact zone” value is listed as “significant reductions in edema”.

System in another data set: not given
Assay: not given
The conditions noted are these: cited from earlier work.
As for `COc1ccc(Cl)cc1[C@]1(F)C(=O)Nc2cc(C(F)(F)F)ccc21` [Compound of Formula (S)-IV, (S)-3-(5-chloro-2-methoxyphenyl)-3-fluoro-6-(trifluoromethyl)-indolin-2-one], the aqueous solubility result is given as “low aqueous solubility”.
